Assay type in all cases: functional
Common to all, as to conditions: route intraperitoneal

Test [1] relates to Rattus norvegicus. Description: Antiinflammatory activity in Wister albino rat assessed as inhibition of carrageenan-induced paw edema at 50 mg/kg, ip administered 1 hr before carrageenan challenge measured after 4 hrs by plethysmometer relative to indomethacin. On the technique in general: Carrageenan injected into the paw causes an acute inflammation.
Test [2] concerns Rattus norvegicus. Description: Antiinflammatory activity in Wister albino rat assessed as inhibition of carrageenan-induced paw edema at 50 mg/kg, ip administered 1 hr before carrageenan challenge measured after 4 hrs by plethysmometer relative to control.
The subject of test [3] is Rattus norvegicus. Description: Antiinflammatory activity in Wister albino rat assessed as inhibition of carrageenan-induced paw edema at 50 mg/kg, ip administered 1 hr before carrageenan challenge measured after 3 hrs by plethysmometer relative to control.
Test [4] relates to Rattus norvegicus. Description: Antiinflammatory activity in Wister albino rat assessed as inhibition of carrageenan-induced paw edema at 50 mg/kg, ip administered 1 hr before carrageenan challenge measured after 2 hrs by plethysmometer relative to control.
Test [5] has as its system Rattus norvegicus. Description: Antiinflammatory activity in Wister albino rat assessed as inhibition of carrageenan-induced paw edema at 50 mg/kg, ip administered 1 hr before carrageenan challenge measured after 24 hrs by plethysmometer relative to control.
Test [6] relates to Rattus norvegicus. Description: Antiinflammatory activity in Wister albino rat assessed as inhibition of carrageenan-induced paw edema at 50 mg/kg, ip administered 1 hr before carrageenan challenge measured after 1 hr by plethysmometer relative to control.
The test system of test [7] is Rattus norvegicus. Description: Antiinflammatory activity in Wister albino rat assessed as inhibition of carrageenan-induced paw edema at 10 mg/kg, ip administered 1 hr before carrageenan challenge measured after 24 hrs by plethysmometer relative to control.
Test [8] deals with Rattus norvegicus. Description: Antiinflammatory activity in Wister albino rat assessed as inhibition of carrageenan-induced paw edema at 10 mg/kg, ip administered 1 hr before carrageenan challenge measured after 4 hrs by plethysmometer relative to control.
Test [9] has as its system Rattus norvegicus. Description: Antiinflammatory activity in Wister albino rat assessed as inhibition of carrageenan-induced paw edema at 10 mg/kg, ip administered 1 hr before carrageenan challenge measured after 3 hrs by plethysmometer relative to control.
Test [10] relates to Rattus norvegicus. Description: Antiinflammatory activity in Wister albino rat assessed as inhibition of carrageenan-induced paw edema at 10 mg/kg, ip administered 1 hr before carrageenan challenge measured after 1 hr by plethysmometer relative to control.
Test [11] has as its system Rattus norvegicus. Description: Antiinflammatory activity in Wister albino rat assessed as inhibition of carrageenan-induced paw edema at 10 mg/kg, ip administered 1 hr before carrageenan challenge measured after 2 hrs by plethysmometer relative to control.

This note sets out measurements from ChEMBL document CHEMBL1949547, “Computer-assisted rational design, synthesis, and bioassay of non-steroidal anti-inflammatory agents” (2012).

What is called inhibition in vivo is the drop in the measured response relative to a control, in per cent. Turning to `CCOC(=O)c1c(-c2ccc(Cl)cc2)cc(-c2ccccc2)nc1N1CCCCC1`, the inhibition in vivo at 50 mg/kg in test [1] was 103%; in test [2], 70.1%; in test [3], 24%; in test [4] it was 29.1%; in test [5], 36.4%; in test [6], 59.3%.
For the compound `CCOC(=O)c1c(-c2ccc(Cl)c(Cl)c2)cc(-c2ccccc2)nc1N1CCCCC1`, the inhibition in vivo at 50 mg/kg is 95.1% in [1]; 64.7% in [2]; 46.3% in [3]; 67.9% in [4]; 48.9% in test [5]; 53.5% in test [6].
Regarding `CCOC(=O)c1c(-c2ccc(Cl)cc2)cc(-c2ccccc2)nc1N1CCOCC1`, the inhibition in vivo at 50 mg/kg is 120% in test [1]; 81.3% in test [2]; 69.8% in [3]; 54.5% in test [4]; 61.7% in test [5]; 59.5% in test [6].
With `CCOC(=O)c1c(-c2ccc(Cl)c(Cl)c2)cc(-c2ccccc2)nc1N1CCOCC1`, the inhibition in vivo at 50 mg/kg in test [1] worked out at 96.6%; in test [2], 65.7%; in test [3], 67.7%; in test [4] it was 74.3%; in test [5] it was 61.6%; in [6], 63.5%.
On to `CCOC(=O)c1c(-c2ccc(Cl)cc2)cc(-c2ccccc2)nc1N1CCN(C)CC1`, for which the inhibition in vivo at 50 mg/kg came to 55.6% in test [1]; 37.8% in test [2]; 67.8% in [3]; 39.6% in test [4]; 53.2% in [5]; 65.8% in test [6].
`CCOC(=O)c1c(-c2ccc(Cl)cc2)cc(-c2ccccc2)nc1Nc1ccccc1`: the inhibition in vivo at 50 mg/kg was 123% in test [1]; 83.8% in test [2]; 73.7% in test [3]; 73.9% in [4]; 46.5% in [5]; 62.3% in test [6].
Take `CCOC(=O)c1c(-c2ccc(Cl)cc2)cc(-c2ccccc2)nc1Nc1ccc(C)cc1`: the inhibition in vivo at 50 mg/kg in [1] was determined as 90.9%; in test [2] it was 61.8%; in test [3], 82.4%; in test [4], 32.6%; in test [5], 62.7%; in test [6] it was 69.5%.
As to `CCOC(=O)c1c(-c2ccc(Cl)c(Cl)c2)cc(-c2ccccc2)nc1Nc1ccc(C)cc1`, the inhibition in vivo at 50 mg/kg was 87.9% in test [1]; 59.8% in [2]; 59.3% in [3]; 62.1% in test [4]; 40.8% in test [5]; 59% in test [6].
Consider `CCOC(=O)c1c(-c2ccc(Cl)cc2)cc(-c2ccccc2)nc1Nc1ccc(OC)cc1`, for which the inhibition in vivo at 50 mg/kg is 57.2% in test [1]; 38.9% in test [2]; 68.8% in test [3]; 61.1% in [4]; 39.6% in test [5]; 33.3% in [6].
`CCOC(=O)c1c(-c2ccc(Cl)cc2)cc(-c2ccccc2)nc1Nc1ccc(Cl)cc1`: the inhibition in vivo at 50 mg/kg in test [1] stood at 95.9%; in test [2], 65.2%; in test [3], 31.2%; in test [4], 40.6%; in test [5] it was 32.9%; in test [6], 44.6%.
For `CCOC(=O)c1c(-c2ccc(Cl)c(Cl)c2)cc(-c2ccccc2)nc1Nc1ccc(Cl)cc1`, the inhibition in vivo at 50 mg/kg in test [1] came out at 91.8%; in [2], 62.4%; in [3] it was 62.2%; in test [4] it was 61.9%; in test [5] it was 52.7%; in [6], 46.2%.
For `CCOC(=O)c1c(-c2ccc(F)cc2)cc(-c2ccccc2)nc1Nc1ccc(Cl)cc1`, in test [2], the inhibition in vivo at 50 mg/kg was 78.4%.
Still for that read-out and setting: in the case of `CCOC(=O)c1c(-c2ccc(C)cc2)cc(-c2ccccc2)nc1Nc1ccc(OC)cc1` it was 89.4%.
Still for that read-out and setting: in the case of `CCOC(=O)c1c(-c2ccc(F)cc2)cc(-c2ccccc2)nc1N1CCCCC1` it was 76%.
On the same count and under the same terms, to `CCOC(=O)c1c(-c2ccc(C)cc2)cc(-c2ccccc2)nc1N1CCCCC1` belongs 78%; to `CCOC(=O)c1c(-c2ccc(C)cc2)cc(-c2ccccc2)nc1N1CCOCC1`, 73%; to `CCOC(=O)c1c(-c2ccc(C)cc2)cc(-c2ccccc2)nc1Nc1ccc(Cl)cc1`, 79.4%.
For the compound `CCOC(=O)c1c(-c2ccc(F)cc2)cc(-c2ccccc2)nc1Nc1ccccc1`, the inhibition in vivo at 50 mg/kg in [2] was found to be 76%.
For `CCOC(=O)c1c(-c2ccc(F)cc2)cc(-c2ccccc2)nc1N1CCOCC1`, the inhibition in vivo at 50 mg/kg in test [2] was determined as 72.7%.
Same read-out and setting: to `N#Cc1c(-c2ccc(N3CCCCC3)cc2)c(C#N)c2n(Cc3ccccc3)c([S-])n[n+]2c1N` belongs 67.4%; to `N#Cc1c(-c2ccc(N3CCOCC3)cc2)c(C#N)c2n(Cc3ccccc3)c([S-])n[n+]2c1N`, 39.3%.
Same read-out and setting: to `CN1CCN(c2ccc(-c3c(C#N)c(N)[n+]4nc([S-])n(C)c4c3C#N)cc2)CC1` belongs 36.6%.
Same read-out and setting: in the case of `C=CCn1c([S-])n[n+]2c(N)c(C#N)c(-c3ccc(N4CCOCC4)cc3)c(C#N)c12` it was 60.6%.
For `Cn1c([S-])n[n+]2c(N)c(C#N)c(-c3ccc(N4CCOCC4)cc3)c(C#N)c12`, the inhibition in vivo at 50 mg/kg in test [2] amounted to 45.4%.
Regarding `Cn1c([S-])n[n+]2c(N)c(C#N)c(-c3ccc(N4CCCCC4)cc3)c(C#N)c12`, the inhibition in vivo at 50 mg/kg in test [2] came out at 51.1%.
As to `C=CCn1c([S-])n[n+]2c(N)c(C#N)c(-c3ccc(N4CCCCC4)cc3)c(C#N)c12`, the inhibition in vivo at 50 mg/kg in [2] was 68.5%.
Consider `COc1ccc2c(c1)c(CC(=O)O)c(C)n2C(=O)c1ccc(Cl)cc1` [INDOMETHACIN], for which, in [1], the inhibition in vivo at 50 mg/kg was determined as 100%. The inhibition in vivo at 10 mg/kg in test [7] worked out at 76.9%; in test [8], 68%; in [9], 64.8%; in [10], 62.8%; in test [11], 59.9%.
